Test results reported in PubChem BioAssay AID1794819.
Non-standard residues stand in square brackets, D forms with d. Residues, ends and D or L forms follow the SMILES beside them. Sar = CNCC(=O)O

Biological target: Solute carrier family 15 member 2 (Homo sapiens) (UniProt Q16348)
Test: SLC15A2 dipeptide substrate-evoked depolarization, dose response, membrane potential dye, HEK-293 overexpressing cells, pH 6.8/7.4 (AID 1794819)
Conditions: HEK-293 SLC15A2 OE, FLIPR membrane potential dye, as substrate

Sequence of Solute carrier family 15 member 2 (Homo sapiens) (Q16348 whole entry, looked up): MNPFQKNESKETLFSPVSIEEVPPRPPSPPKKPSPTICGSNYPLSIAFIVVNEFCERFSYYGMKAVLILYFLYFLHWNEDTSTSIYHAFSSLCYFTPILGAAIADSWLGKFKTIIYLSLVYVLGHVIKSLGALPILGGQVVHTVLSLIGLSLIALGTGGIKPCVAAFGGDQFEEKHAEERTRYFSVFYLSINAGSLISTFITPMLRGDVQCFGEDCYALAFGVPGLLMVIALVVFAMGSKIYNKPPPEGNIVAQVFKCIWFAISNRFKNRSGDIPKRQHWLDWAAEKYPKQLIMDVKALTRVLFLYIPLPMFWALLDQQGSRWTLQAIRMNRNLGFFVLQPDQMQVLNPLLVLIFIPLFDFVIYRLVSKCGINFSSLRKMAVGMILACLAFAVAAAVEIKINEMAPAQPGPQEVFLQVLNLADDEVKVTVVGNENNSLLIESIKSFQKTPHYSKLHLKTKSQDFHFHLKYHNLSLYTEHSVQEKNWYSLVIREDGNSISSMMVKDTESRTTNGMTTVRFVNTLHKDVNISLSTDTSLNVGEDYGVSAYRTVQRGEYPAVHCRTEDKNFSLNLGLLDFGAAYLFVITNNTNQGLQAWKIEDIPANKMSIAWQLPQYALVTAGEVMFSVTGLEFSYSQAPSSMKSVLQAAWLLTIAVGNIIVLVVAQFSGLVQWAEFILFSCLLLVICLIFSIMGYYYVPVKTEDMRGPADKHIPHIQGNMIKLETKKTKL

Row | EC50 (pH 6.8) [µM] | EC50 (pH 7.4) [µM] | SMILES
1 | 28 |  | NCCC(=O)N[C@@H](Cc1cnc[nH]1)C(=O)O
2 | 39 | 123 | CN(CC(=O)O)C(=O)CN (H-Gly-[Sar]-OH)
